The target of experiment [1] is T1, AT1 Q257A receptor (Rattus norvegicus, UniProt P25095, Q257A).
T1 construct: expressed in transfected cells; host or cells: COS7
T1 sequence (P25095 1-359 Q257A): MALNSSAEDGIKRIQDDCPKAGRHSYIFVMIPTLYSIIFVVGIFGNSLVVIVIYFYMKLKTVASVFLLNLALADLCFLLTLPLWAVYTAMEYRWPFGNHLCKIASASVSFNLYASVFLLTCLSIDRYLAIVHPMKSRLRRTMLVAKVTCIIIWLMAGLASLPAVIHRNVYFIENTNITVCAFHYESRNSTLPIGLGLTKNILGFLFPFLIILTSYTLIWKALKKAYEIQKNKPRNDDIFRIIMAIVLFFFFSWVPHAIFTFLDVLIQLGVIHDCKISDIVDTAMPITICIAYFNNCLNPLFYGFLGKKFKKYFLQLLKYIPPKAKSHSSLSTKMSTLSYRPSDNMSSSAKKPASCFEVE
Put plainly: Immunoblotting of ERK 1/2 activation in COS7 cells overexpressing AT1-Q257A receptor. The class given is cell-based. The note with it: 1 µM ligands or 0.1 µM Ang II, 10 min, n = 5, vs. (-). The procedure: The synthetic rat AT1 receptor gene, which was cloned in the shuttle expression vector pMT-2, was used for expression and mutagenesis, as described previously. […] In the experiments, cells were grown without a cell-growth supplement. To express the AT1 receptor protein, 10 µg of purified plasmid DNA per 10^7 cells was used in the transfection. Wild-type and mutated AT1 receptors were transiently transfected into cells using Lipofectamine 2000 liposomal reagent (Roche Applied Science, Penzberg, Germany). Cells were plated and grown and were 70–90% confluent at the time of transfection. We incubated plasmid DNA (10 µg)–lipid (10 µL) complexes for 5 min at room temperature and added and incubated the complexes with cells for 24 h. We then analyzed the parameters in transfected cells. […] Transfected cells that had been cultured for 48–72 h were harvested. […]
In in vitro studies, ERK 1/2 activation by 1 µM ligands or 0.1 µM Ang II incubated for 10 min was measured using COS7 cells that overexpressed AT1 wild-type and mutant receptors. ERK activity was measured in cells maintained for 18 h in DMEM containing 0.1% serum. […] We homogenized the cells in lysis buffer plus protease inhibitors and determined the protein concentration using the bicinchoninic acid method. […] The signal was independently quantified by digital image analysis (ImageJ, National Institutes of Health, Bethesda, MD, USA).
For orientation: A western blot detects proteins with antibodies after separation by electrophoresis.

Experiment [2] addresses T2, AT1 L112A receptor (Rattus norvegicus, UniProt P25095, L112A).
T2 construct: expressed in transfected cells; host or cells: COS7
T2 sequence (P25095 1-359 L112A): T1 sequence (P25095 1-359 Q257A) with L112A, A257Q
Put plainly: Competition binding study, 125I-[Sar1,Ile8]Ang II, AT1 L112A receptor. The note with it: competition with 125I-[Sar1,Ile8]Ang II, n = 3, mean ± standard error, read-out: Binding affinity (Kd). From the text:
We mutated four amino acids in transmembrane (TM) III, VI, and VII in the AT1 receptor (L112A, Q257A, Y292A, and N295A receptors). We determined the mutation sites of the AT1 receptor according to ARB, which produced olmesartan derivatives with different interactions and functions toward the AT1 receptor, as previously reported by Zhang et al., since the additional 4-hydroxybenzyl groups of R781253 and R794847 were predicted to extend to a sub-pocket on the bottom of the AT1 receptor ligand-binding pocket consisting of Leu^112 and Gln^257. In addition, since the biased ligand TRV027 induced changes near the NPxxY motif in TM domain 7 that are related to receptor activation, Tyr^292 and Asn^295 in the AT1 receptor were mutated.
The synthetic rat AT1 receptor gene, which was cloned in the shuttle expression vector pMT-2, was used for expression and mutagenesis, as described previously. COS7 cells (No. CRL-1651, ATCC, Manassas, VA, USA) were cultured in 10% fetal bovine serum (FBS) and penicillin- and streptomycin-supplemented Dulbecco’s modified Eagle’s essential medium (PS-DMEM) in 5% CO2 at 37 °C. In the experiments, cells were grown without a cell-growth supplement. To express the AT1 receptor protein, 10 µg of purified plasmid DNA per 10^7 cells was used in the transfection. […] We then analyzed the parameters in transfected cells. […]
The Kd (nM) values of receptor binding were determined with ^125I-[Sar^1, Ile^8]AngII-binding experiments under equilibrium conditions. Binding kinetics were determined following the methods described in the literature. […] Ang II was determined in the presence of a high concentration (10^−6 M) of unlabeled [Sar^1, Ile^8]. […] The radioactivity trapped on the filters was quantified using an automatic γ-counter. The percentage (%) of specific binding of ^125I-[Sar^1, Ile^8]Ang II was calculated using the following formula: 100 × (% total binding of ^125I-[Sar^1, Ile^8]Ang II—nonspecific binding of ^125I-[Sar^1, Ile^8]Ang II)/(% total binding of ^125I-[Sar^1, Ile^8]Ang II).

ERK1/2 activation and Kd data for three compounds are collected here from publication PMC10216478, “Development of a Non-Peptide Angiotensin II Type 1 Receptor Ligand by Structural Modification of Olmesartan as a Biased Agonist” (Biomedicines, 2023).

Changes are numbered by the printed parent chain.

As to `CCCc1nc(C(C)(C)O)c(C(=O)O)n1Cc1ccc(-c2ccccc2-c2nnn[nH]2)cc1` [Olmesartan, olmesartan], in experiment [1], the ERK1/2 activation entry was “did not change ERK1/2 activation”.

On to `CCCc1nc(C(C)(C)O)c(C(N)=O)n1Cc1ccc(-c2ccccc2-c2nnn[nH]2)cc1` [R239470], for which, in experiment [2], the Kd is 37 ± 12 nM.

Turning to `CCCc1nc(C(C)(C)O)c(C(=O)O)n1Cc1ccc(-c2cc(Cc3ccc(O)cc3)ccc2-c2nnn[nH]2)cc1` [R781253], in experiment [2], the Kd was 23 ± 7 nM.

A word on the Kd: it is the free concentration of one partner at which half of the binding sites on the other are occupied at equilibrium, for simple one-to-one binding.
